Measurements published in ChEMBL document CHEMBL1150008, “Synthesis and -lactamase inhibitory evaluation of novel 6-halo-2-chloromethyl-2-methylpenam-3-carboxylic acids and their sulfones and 6-halo-2-mercaptobenzothiazolylmethyl-2-methylpenam-3-carboxylic acids” (Bioorg Med Chem Lett, 1995).

Experiments:
Beta-lactamase 1 [1] = biological target: T1, Beta-lactamase 1 (Bacillus cereus, UniProt P00809); assay: Tested for the ability to inhibit Beta-lactamase of Bacillus cereus (class A enzyme) with 10 minutes pre-incubation
T1 sequence (P00809 whole entry): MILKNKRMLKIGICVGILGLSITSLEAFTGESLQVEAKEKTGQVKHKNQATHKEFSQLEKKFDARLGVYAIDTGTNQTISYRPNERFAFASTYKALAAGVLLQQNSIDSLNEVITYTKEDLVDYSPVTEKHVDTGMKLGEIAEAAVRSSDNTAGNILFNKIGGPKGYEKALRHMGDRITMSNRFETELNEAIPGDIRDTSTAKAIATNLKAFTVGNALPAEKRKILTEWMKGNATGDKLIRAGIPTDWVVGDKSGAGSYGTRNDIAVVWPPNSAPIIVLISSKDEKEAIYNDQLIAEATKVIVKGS

Beta-lactamase 1 [2] = biological target: T1, Beta-lactamase 1; assay: Inhibition of Beta-lactamase of Bacillus cereus (class A enzyme) without pre-incubation

Row | Structure (SMILES) | IC50 (Beta-lactamase 1 [1]) [µM] | IC50 (Beta-lactamase 1 [2]) [µM]
1 | C[C@@]1(CSc2nc3ccccc3s2)S[C@@H]2[C@@H](Cl)C(=O)N2[C@H]1C(=O)O | > 5000 | > 5000
2 | C[C@@]1(CSc2nc3ccccc3s2)S[C@@H]2[C@@H](Br)C(=O)N2[C@H]1C(=O)O | > 5000 | > 5000
3 | C[C@]1(CCl)[C@H](C(=O)O)N2C(=O)[C@H](Cl)[C@H]2S1(=O)=O | 70 | 450
4 | CC1(C)[C@H](C(=O)O)N2C(=O)[C@H](Cl)[C@H]2S1(=O)=O | 200 | 1500
5 | C[C@@]1(CSc2nc3ccccc3s2)S[C@@H]2[C@@H](F)C(=O)N2[C@H]1C(=O)O | > 5000 | > 5000
6 | C[C@]1(CCl)[C@H](C(=O)O)N2C(=O)C[C@H]2S1(=O)=O | 300 | 250
7 | C[C@]1(CCl)[C@H](C(=O)O)N2C(=O)[C@H](F)[C@H]2S1(=O)=O | > 3000 | > 3000
8 | C[C@]1(CCl)[C@H](C(=O)O)N2C(=O)[C@H](Br)[C@H]2S1(=O)=O | 1000 | 3000
9 | CC1(C)[C@H](C(=O)O)N2C(=O)C[C@H]2S1(=O)=O [SULBACTAM] | 25 | 25
